Data set [1] deals with T1, Bromodomain-containing protein 4 (Homo sapiens, UniProt O60885). The experiment in a line: Binding affinity to BRD4 in human H1299 cells stably expressing E2 and HPV16-LCR luciferase reporter incubated for 24 hrs by Bright-Glo luciferase reporter gene assay based BRD4 engagement assay. The format is cell-based. (In general: In a reporter assay the amount or activity of a reporter protein is the signal.)

The target in data set [2] is T2, Bromodomain-containing protein 9 (Homo sapiens) (UniProt Q9H8M2).
T2 sequence (whole entry): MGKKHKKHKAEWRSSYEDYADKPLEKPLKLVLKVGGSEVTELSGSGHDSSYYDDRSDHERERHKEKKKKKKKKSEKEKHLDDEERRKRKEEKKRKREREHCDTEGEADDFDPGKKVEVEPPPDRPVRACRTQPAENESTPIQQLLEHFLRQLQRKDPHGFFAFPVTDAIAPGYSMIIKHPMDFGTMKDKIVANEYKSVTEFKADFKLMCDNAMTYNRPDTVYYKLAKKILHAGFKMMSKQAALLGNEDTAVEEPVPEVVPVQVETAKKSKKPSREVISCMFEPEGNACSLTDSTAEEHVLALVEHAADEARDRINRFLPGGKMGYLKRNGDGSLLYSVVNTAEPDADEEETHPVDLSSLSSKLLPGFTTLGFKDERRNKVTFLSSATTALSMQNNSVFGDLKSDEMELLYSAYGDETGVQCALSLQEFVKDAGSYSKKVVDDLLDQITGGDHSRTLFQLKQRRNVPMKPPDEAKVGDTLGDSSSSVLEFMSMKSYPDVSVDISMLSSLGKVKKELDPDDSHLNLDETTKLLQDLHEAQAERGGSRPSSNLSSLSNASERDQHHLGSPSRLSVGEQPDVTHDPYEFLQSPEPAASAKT
The data set is described as follows: Binding affinity to human BRD9 expressed in bacterial system assessed as remaining binding level at 1 uM by BROMOscan assay relative to control.

In data set [3] the target is T3, Peregrin (Homo sapiens) (UniProt P55201).
T3 sequence (whole entry): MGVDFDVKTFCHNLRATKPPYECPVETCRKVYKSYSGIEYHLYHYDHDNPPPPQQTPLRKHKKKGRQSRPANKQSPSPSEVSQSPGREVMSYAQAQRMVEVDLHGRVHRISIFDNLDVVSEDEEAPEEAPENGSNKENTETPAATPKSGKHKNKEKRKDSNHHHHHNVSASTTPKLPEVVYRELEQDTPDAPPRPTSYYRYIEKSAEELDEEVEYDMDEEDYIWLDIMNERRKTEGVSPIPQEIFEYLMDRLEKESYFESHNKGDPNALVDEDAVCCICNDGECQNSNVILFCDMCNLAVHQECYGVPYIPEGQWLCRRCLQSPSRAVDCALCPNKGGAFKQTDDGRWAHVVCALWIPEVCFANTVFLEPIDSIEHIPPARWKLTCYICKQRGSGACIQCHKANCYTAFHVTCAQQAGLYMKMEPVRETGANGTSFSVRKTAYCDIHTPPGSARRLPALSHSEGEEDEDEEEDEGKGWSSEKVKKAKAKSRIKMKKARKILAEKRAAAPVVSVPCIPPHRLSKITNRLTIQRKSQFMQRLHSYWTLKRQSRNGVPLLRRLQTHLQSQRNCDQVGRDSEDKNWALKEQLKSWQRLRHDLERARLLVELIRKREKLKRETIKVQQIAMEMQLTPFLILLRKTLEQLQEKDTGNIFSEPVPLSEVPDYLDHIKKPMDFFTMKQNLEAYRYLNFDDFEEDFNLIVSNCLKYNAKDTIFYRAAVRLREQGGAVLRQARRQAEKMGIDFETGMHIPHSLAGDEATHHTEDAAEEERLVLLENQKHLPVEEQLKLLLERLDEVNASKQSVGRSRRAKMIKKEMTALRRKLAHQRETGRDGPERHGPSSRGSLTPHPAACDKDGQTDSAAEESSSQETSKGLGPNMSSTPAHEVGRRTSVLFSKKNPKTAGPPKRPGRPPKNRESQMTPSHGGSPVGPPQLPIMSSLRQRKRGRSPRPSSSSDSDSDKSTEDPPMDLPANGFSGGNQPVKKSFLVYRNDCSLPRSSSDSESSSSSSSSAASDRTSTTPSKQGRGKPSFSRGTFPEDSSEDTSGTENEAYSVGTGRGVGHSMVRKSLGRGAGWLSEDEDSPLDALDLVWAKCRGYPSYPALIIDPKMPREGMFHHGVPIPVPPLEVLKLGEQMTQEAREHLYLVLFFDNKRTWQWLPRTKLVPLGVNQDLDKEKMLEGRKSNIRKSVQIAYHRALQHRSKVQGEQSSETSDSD
The experiment in a line: Binding affinity to human BRPF1 expressed in bacterial system assessed as remaining binding level at 1 uM by BROMOscan assay relative to control.

The subject of data set [4] is Mus musculus. The experiment in a line: Unbound clearance in mouse at 10 mg/kg, po. The format is ADME, organism-based. As to conditions: in vivo.
Data set [5] deals with Histone acetyltransferase p300 (Homo sapiens) (UniProt Q09472). The experiment in a line: Binding affinity to human EP300 expressed in bacterial system assessed as remaining binding level at 1 uM by BROMOscan assay relative to control.
Data set [6] can be described thus: Intrinsic unbound clearance in human liver microsomes. In kind it is ADME, microsome. In general terms: Liver microsomes are vesicles of endoplasmic reticulum, rich in cytochrome P450 enzymes.
The target in data set [7] is T1, Bromodomain-containing protein 4. The experiment in a line: Binding affinity to BRD4 bromodomain 2 (E352 to M457 amino acids) (unknown origin) using Alexa647-labeled BET-inhibitor as fluorescent probe by bromodomain TR-FRET binding assay. Background: TR-FRET usually uses a lanthanide donor and a delayed reading to cut background.
Data set [8] concerns the target Bromodomain-containing protein 3 (Homo sapiens, UniProt Q15059). The data set is described as follows: Binding affinity to BRD3 bromodomain 1 to 2 (P24 to P416 amino acids) (unknown origin) using Alexa647-labeled BET-inhibitor as fluorescent probe by bromodomain TR-FRET binding assay.
For data set [9], the target named is Nucleosome-remodeling factor subunit BPTF (Homo sapiens) (UniProt Q12830). The data set is described as follows: Binding affinity to human FALZ expressed in bacterial system assessed as remaining binding level at 1 uM by BROMOscan assay relative to control.
Data set [10] addresses T1, Bromodomain-containing protein 4. The experiment in a line: Binding affinity to BRD4 bromodomain 1 (K57 to E168 amino acids) (unknown origin) using Alexa647-labeled BET-inhibitor as fluorescent probe by bromodomain TR-FRET binding assay.
The target in data set [11] is Bromodomain adjacent to zinc finger domain protein 2A (Homo sapiens) (UniProt Q9UIF9). The experiment in a line: Binding affinity to human BAZ2A expressed in bacterial system assessed as remaining binding level at 1 uM by BROMOscan assay relative to control.
For data set [12], the target named is Bromodomain and WD repeat-containing protein 1 (Homo sapiens) (UniProt Q9NSI6). The experiment in a line: Binding affinity to human WDR9 bromodomain 2 expressed in bacterial system assessed as remaining binding level at 1 uM by BROMOscan assay relative to control.
Data set [13] has as its target Histone acetyltransferase KAT2B (Homo sapiens) (UniProt Q92831). The experiment in a line: Binding affinity to human PCAF expressed in mammalian system assessed as remaining binding level at 1 uM by BROMOscan assay relative to control.
Data set [14] addresses SWI/SNF-related matrix-associated actin-dependent regulator of chromatin subfamily A member 2 (Homo sapiens) (UniProt P51531). The data set is described as follows: Binding affinity to human SMARCA2 expressed in bacterial system assessed as remaining binding level at 1 uM by BROMOscan assay relative to control.

In general, IC50 refers to the concentration at which inhibition is half-maximal. The low end stands for greater potency, the high end for weaker potency. As a reminder, the Ki is a measure of affinity in units of concentration, obtained from inhibition or displacement.

Some results are limits rather than exact numbers.

Histone acetyltransferase p300 (Homo sapiens), sequence (Q09472 whole entry): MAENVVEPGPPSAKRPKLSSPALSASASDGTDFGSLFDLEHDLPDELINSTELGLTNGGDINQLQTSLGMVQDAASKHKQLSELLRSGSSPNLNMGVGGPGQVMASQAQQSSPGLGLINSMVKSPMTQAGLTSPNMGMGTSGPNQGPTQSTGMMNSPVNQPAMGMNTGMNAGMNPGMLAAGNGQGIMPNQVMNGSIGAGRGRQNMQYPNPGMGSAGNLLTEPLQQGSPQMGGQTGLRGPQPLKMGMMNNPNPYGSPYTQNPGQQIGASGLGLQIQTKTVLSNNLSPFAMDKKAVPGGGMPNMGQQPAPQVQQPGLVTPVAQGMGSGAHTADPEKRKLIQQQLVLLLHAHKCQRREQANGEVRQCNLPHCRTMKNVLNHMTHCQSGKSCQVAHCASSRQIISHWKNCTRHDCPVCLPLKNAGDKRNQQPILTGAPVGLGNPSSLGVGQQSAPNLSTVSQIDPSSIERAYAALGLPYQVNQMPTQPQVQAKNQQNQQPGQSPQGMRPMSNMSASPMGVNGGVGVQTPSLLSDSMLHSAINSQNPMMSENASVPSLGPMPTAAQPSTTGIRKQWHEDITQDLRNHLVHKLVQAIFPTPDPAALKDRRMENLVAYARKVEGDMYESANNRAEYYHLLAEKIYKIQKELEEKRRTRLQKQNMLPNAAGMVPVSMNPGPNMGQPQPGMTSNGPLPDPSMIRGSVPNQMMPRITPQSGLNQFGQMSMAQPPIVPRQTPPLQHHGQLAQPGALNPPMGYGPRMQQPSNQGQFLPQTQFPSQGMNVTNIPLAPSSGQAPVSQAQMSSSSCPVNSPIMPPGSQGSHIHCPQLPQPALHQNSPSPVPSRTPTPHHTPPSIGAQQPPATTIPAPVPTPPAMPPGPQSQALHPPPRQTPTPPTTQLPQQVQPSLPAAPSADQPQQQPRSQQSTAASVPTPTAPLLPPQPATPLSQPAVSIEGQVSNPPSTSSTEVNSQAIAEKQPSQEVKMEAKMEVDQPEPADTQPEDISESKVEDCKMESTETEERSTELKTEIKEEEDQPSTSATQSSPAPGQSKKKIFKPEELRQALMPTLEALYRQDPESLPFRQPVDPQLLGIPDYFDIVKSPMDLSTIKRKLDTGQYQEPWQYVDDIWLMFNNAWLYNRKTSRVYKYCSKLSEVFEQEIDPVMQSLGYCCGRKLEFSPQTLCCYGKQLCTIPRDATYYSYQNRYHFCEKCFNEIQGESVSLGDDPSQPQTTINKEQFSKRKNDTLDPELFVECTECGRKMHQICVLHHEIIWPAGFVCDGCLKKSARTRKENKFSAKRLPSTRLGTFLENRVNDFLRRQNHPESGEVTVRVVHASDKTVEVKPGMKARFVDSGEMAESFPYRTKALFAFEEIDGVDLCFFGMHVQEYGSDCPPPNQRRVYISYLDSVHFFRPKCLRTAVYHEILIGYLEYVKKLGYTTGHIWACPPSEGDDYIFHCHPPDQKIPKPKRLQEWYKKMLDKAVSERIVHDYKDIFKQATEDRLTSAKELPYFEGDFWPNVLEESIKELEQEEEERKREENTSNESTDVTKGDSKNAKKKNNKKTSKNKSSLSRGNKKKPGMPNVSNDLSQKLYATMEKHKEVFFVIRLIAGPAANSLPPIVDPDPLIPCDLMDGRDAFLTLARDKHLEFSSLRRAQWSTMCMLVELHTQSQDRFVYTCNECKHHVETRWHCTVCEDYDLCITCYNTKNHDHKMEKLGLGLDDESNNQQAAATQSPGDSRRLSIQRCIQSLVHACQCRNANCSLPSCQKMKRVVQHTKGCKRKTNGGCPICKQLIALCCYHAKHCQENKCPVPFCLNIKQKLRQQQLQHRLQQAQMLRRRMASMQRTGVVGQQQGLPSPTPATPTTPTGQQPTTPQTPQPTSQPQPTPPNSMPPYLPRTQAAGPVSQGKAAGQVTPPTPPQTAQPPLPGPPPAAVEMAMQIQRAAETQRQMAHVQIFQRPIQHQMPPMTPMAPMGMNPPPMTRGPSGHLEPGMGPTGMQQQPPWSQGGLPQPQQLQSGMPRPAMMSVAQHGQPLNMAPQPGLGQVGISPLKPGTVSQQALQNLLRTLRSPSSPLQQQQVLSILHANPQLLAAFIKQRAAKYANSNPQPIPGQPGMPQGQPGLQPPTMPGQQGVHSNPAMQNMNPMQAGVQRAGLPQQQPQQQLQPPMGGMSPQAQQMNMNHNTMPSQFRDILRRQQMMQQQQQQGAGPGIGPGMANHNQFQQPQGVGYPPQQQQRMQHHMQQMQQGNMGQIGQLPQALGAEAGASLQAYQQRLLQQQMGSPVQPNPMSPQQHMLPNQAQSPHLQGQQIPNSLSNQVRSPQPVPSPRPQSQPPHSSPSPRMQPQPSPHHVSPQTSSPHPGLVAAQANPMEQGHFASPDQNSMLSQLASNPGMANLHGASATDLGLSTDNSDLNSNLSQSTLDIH
Bromodomain adjacent to zinc finger domain protein 2A (Homo sapiens), sequence (Q9UIF9 whole entry, the tested form may be a part): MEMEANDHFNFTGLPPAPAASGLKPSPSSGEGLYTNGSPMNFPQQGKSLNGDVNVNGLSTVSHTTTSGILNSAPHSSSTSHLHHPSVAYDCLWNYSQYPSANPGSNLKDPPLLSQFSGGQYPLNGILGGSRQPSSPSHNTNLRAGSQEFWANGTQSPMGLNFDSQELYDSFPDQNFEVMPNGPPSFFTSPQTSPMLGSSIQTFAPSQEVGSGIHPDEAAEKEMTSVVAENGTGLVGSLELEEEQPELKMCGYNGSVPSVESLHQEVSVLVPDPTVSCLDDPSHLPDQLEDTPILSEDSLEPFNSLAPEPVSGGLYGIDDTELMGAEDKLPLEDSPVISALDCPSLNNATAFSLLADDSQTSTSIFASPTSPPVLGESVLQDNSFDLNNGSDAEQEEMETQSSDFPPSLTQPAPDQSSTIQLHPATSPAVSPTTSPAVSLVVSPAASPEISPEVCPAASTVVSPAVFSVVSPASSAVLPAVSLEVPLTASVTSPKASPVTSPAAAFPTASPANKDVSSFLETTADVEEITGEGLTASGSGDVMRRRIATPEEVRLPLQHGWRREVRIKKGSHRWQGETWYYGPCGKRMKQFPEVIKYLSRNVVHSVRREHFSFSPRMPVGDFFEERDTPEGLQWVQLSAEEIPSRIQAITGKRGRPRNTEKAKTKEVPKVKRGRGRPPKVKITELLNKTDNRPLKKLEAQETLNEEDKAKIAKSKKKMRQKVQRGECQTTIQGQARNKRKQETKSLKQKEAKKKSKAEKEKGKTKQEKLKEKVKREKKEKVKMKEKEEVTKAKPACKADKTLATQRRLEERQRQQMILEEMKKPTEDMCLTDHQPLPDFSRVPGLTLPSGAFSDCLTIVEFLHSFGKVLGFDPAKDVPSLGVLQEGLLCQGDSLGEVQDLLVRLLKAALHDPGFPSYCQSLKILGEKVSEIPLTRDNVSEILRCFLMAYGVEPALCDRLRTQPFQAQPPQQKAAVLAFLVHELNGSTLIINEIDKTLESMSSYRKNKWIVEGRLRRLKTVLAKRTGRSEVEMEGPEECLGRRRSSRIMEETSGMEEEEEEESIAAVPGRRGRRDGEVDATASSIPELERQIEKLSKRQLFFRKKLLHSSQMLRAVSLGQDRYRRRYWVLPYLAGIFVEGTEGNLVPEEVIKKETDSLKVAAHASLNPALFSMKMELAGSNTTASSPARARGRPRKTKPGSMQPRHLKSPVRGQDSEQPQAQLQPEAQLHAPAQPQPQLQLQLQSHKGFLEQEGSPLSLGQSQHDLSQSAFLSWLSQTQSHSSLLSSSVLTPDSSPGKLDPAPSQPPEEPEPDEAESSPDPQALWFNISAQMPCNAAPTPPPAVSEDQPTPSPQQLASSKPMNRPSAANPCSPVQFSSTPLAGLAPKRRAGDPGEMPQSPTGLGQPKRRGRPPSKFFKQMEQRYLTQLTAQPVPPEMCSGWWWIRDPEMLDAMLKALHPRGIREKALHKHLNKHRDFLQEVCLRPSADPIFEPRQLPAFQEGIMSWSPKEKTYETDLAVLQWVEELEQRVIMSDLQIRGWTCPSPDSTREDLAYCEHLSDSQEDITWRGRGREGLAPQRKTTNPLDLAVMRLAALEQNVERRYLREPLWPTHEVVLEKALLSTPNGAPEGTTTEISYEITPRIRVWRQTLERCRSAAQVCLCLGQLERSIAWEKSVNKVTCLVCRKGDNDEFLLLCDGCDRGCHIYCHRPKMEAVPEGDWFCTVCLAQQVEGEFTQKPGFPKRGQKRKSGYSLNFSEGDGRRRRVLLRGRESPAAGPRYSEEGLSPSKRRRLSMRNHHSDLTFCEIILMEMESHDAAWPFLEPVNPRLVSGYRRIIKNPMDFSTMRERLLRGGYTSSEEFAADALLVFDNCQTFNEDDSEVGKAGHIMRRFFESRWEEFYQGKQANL
Bromodomain-containing protein 3, sequence (Q15059 whole entry, the tested form may be a part): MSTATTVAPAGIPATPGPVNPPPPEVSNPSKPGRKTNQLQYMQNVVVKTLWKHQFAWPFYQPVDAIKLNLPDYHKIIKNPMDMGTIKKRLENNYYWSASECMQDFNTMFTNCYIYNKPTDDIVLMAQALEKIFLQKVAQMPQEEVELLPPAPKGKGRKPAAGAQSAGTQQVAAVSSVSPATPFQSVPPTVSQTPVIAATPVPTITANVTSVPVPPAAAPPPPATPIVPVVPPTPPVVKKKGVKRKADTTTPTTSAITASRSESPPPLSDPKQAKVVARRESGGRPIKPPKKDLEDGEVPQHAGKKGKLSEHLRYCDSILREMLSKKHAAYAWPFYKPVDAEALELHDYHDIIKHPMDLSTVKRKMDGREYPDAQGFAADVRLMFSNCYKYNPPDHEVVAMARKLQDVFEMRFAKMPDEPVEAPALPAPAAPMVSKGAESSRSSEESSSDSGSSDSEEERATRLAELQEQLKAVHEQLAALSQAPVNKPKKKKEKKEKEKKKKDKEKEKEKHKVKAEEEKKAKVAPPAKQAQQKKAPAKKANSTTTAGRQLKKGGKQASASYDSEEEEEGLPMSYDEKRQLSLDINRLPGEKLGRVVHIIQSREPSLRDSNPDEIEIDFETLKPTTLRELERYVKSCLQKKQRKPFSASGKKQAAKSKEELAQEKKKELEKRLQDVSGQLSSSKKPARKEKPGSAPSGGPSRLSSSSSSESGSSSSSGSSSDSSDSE

For the compound `Cn1cc2c3c(c[nH]c3c1=O)CN(c1ccccn1)c1ccc(CS(C)(=O)=O)cc1-2`, in data set [1], the IC50 was found to be 1.7 nM. In addition, the Activity in data set [2] was determined as 38%; in [3] it was 1.2%; in data set [5], 0%; in [9], 39%; in data set [11] it was 26%; in data set [12], 89%. The results for the Activity in data set [13] and in data set [14] were 94% and 68%, respectively. Also, the CL free was found to be 157 mL/min/kg in data set [4] and 50 mL/min/kg in data set [6]. Besides, the inhibition constant (Ki) in [7] worked out at 1.5 nM; in [8], 10 nM; in [10] it was 1.2 nM.
`Cn1cc2c3c(c[nH]c(=O)c31)-c1cc(CS(C)(=O)=O)ccc1N(c1ccc(F)cc1)C2` displayed a half-maximal inhibitory concentration (IC50) in [1] of 2.5 nM. Moreover, the Activity came to 96% in [2]; 69% in data set [3]; 42% in data set [5]; 100% in data set [9]; 100% in data set [11]; 100% in data set [12]. In addition, the Activity in data set [13] came out at 82%; in data set [14], 96%. For the same compound, the CL free in [4] came to 1300 mL/min/kg; in data set [6], 91.7 mL/min/kg. Besides, the Ki in [7] was determined as 2.5 nM; in data set [8] it was 17 nM; in [10], 1.2 nM.
In data set [1], `Cn1cc2c3c(c[nH]c3c1=O)CN(c1ccc(F)cc1F)c1ccc(CS(C)(=O)=O)cc1-2` showed an IC50 of 3.6 nM. Besides, the Activity in data set [2] amounted to 56%; in data set [3], 14%; in data set [5], 0%; in data set [9] it was 76%; in data set [11], 47%; in data set [12], 95%. In addition, the Activity in [13] turned out to be 90%; in data set [14], 82%. Further, the CL free in data set [4] is 750 mL/min/kg; in data set [6], less than 51.7 mL/min/kg. The Ki was determined as 0.73 nM in data set [7], 10 nM in data set [8] and 2.6 nM in data set [10].
